Publication PMC3176149, “Application of Celluspots peptide arrays for the analysis of the binding specificity of epigenetic reading domains to modified histone tails” (BMC Biochemistry, 2011)
Entries after “also recorded” stand apart in the source; their conditions may differ.

Assays:
[1] = tested on: Dnmt3a PWWP domain (residues 279-420); assay: Binding of GST-fused Dnmt3a PWWP domain to modified histone peptides on Celluspots peptide arrays; parameters: species or system murine; conditions: Dnmt3a PWWP GST fusion 50 nM, room temperature, 2 hours, interaction buffer pH 7.5, ECL, tested at least two times
Experimental: In the present study, the binding specificities of seven known reading domains were analyzed using Celluspots peptide arrays comprising 384 peptides from 8 different regions of the N-terminal histone tails, viz. H3 1-19, 7-26, 16-35 and 26-45, H4 1-19 and 11-30, H2A 1-19 and H2B 1-19. The arrays are commercially available from Active Motif and feature 59 post-translational modifications (most of them identified, some of them hypothetical) in many different combinations (Additional file 1). Binding of the GST fused reading domain proteins to peptide arrays was visualized using an anti-GST antibody, followed by a secondary anti-goat-HRP antibody and ECL detection system. The domains were selected to represent the different folds of reading domains and show a wide range of specificities. […] Each reading domain was tested at least two times on the peptide arrays to ensure that the results are reliable. […] The binding intensities for each tested reading domain were analyzed with the Array Analyze program, which calculates the average of the binding intensities to corresponding peptide spots in both copies of the array and prepares a graphical output - one scatter plot illustrating the binding intensities observed at corresponding spots in both copies of the array and a bar diagram showing the distribution of deviations of the binding intensities to the corresponding spots. […]

[2] = tested on: Dnmt3a PWWP domain; conditions: SPOT arrays and follow-up experiments; ref [19]; cited from earlier work
Experimental: These binding modules are about 50 amino acids long and contain two binding sites for zinc ions. The PHD finger of Rag2, an essential component of the Rag1/2 V(D)J recombinase, which mediates antigen-receptor gene assembly, interact ... || Another reading domain which was tested on the Celluspots peptide arrays is the PWWP domain of Dnmt3a. […] Since there is only one H3K36me3-modified peptide spot, the effect of enhancing or inhibiting secondary modifications could not be studied in this case. […] Since peptide arrays are screening tools, unexpected or novel results need to be confirmed by equilibrium peptide binding experiments using purified peptides. In our experience, such studies often confirmed results from peptide arrays. For example in the case of the Dnmt3a PWWP domain, binding ...

[3] = tested on: 53BP1 tandem Tudor domain (residues 1490-1608); assay: Binding of GST-fused 53BP1 tandem Tudor domain to modified histone peptides on Celluspots peptide arrays; parameters: species or system human; conditions: 53BP1 tandem Tudor GST fusion 1 μM, room temperature, 2 hours, interaction buffer pH 7.5, ECL, tested at least two times
Experimental: (§1) In the present study, the binding specificities of seven known reading domains were analyzed using Celluspots peptide arrays comprising 384 peptides from 8 different regions of the N-terminal histone tails, viz. H3 1-19, 7-26, 16-35 and 26-45, H4 1-19 and 11-30, H2A 1-19 and H2B 1-19. The arrays are commercially available from Active Motif and feature 59 post-translational modifications (most of them identified, some of them hypothetical) in many different combinations (Additional file 1). Binding of the GST fused reading domain proteins to peptide arrays was visualized using an anti-GST antibody, followed by a secondary anti-goat-HRP antibody and ECL detection system. […] In case of weak signals, the experiment was repeated with higher protein concentration. In case of an overexposed image, the protein concentration was reduced. For quality control, each glass slide contains two identical copies of the array. […] The sequences encoding human HP1ß full length (residues 1-185), the Chromo domain of human MPP8 (residues 58-112), the double Tudor domain of human JMJ[…] (residues 856-1047), the tandem Tudor domain of human 53BP1 (residues 1490-1608), the PHD finger of human Rag2 (residues 311-520) and the second Bromo domain of human BRD2 (residues 348-455) were amplified from cDNA derived from HEK293 cells and cloned as GST fusion proteins into the pGEX-6P-2 vector (GE Healthcare).

[4] = tested on: 53BP1 tandem Tudor domain; conditions: ref [14],[15]; cited from earlier work
Excerpt: (§2) The Tudor domain folds into a ß-sandwich flanked by one α-helix.

[5] = tested on: JMJD2A double Tudor domain (residues 856-1047); assay: Binding of GST-fused JMJD2A double Tudor domain to modified histone peptides on Celluspots peptide arrays; parameters: species or system human; conditions: JMJD2A double Tudor GST fusion 10 nM, room temperature, 2 hours, interaction buffer pH 7.5, ECL, tested at least two times
Experimental: as §1

[6] = tested on: JMJD2A double Tudor domain; conditions: ref [14],[17],[18]; cited from earlier work
Excerpt: as §2

| Substance | binding to modified histone tail peptides (array signal) [1] | interaction with 53BP1 tandem Tudor domain (literature) [4] | other results |
| --- | --- | --- | --- |
| H3K36me2: H3K36me2 modified histone tail peptide on Celluspots array | weaker binding signal in comparison to H3K36me3 |  |  |
| H3K36me3: H3K36me3-modified peptide spot on Celluspots array (only one) | specifically bound |  | interaction with Dnmt3a PWWP domain (literature) [2]: specific interaction; also recorded: could be verified by peptide binding, pull-down of native nucleosomes and functional DNA methylation experiments; also recorded: shown to read H3K36me3 |
| H4K20me1: H4K20me1 modified histone tail peptide on Celluspots array |  | reported to interact | binding to modified histone tail peptides (array signal) [3]: not observed on the peptide array |
| H4K20me2: H4K20me2 modified histone tail peptide on Celluspots array |  | reported to interact; also recorded: shown to interact | binding to modified histone tail peptides (array signal) [5]: next best bound modification on the peptide array; binding to JMJD2A double Tudor domain (literature) [6]: interact preferentially; also recorded: reported to bind |
